Reference: the supplement of paper PMC4862054

How the values were obtained:
Conditions in all cases: incubation time: 72 h
BT-474 [1] = experiment: normalised response (% of control), CellTox Green; higher = less cell death (100 = DMSO, 0 = benzethonium chloride kill control)
How it was run: (§1)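 Breast cancer cell lines were exposed for 72 h in 384-well plates to compound at 5 concentrations, 10-fold apart, covering a 10,000-fold range fixed for each compound. Plates were read for CellTox Green fluorescence and CellTiter-Glo luminescence and normalised to 0.1 % DMSO (100) and a positive kill control (0). Each value is the normalised signal at one concentration of the series.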

BT-549 [2] = experiment: as above
How it was run: as §1

CAL-120 [3] = experiment: as above
How it was run: as §1

CAL-148 [4] = experiment: as above
How it was run: as §1

CAL-51 [5] = experiment: as above
How it was run: as §1

CAL-85-1 [6] = experiment: as above
How it was run: as §1

DU-4475 [7] = experiment: as above
How it was run: as §1

HCC1143 [8] = experiment: as above
How it was run: as §1

HCC1599 [9] = experiment: as above
How it was run: as §1

HCC1937 [10] = experiment: as above
How it was run: as §1

HDQ-P1 [11] = experiment: as above
How it was run: as §1

Hs578T [12] = experiment: as above
How it was run: as §1

MCF-10A [13] = experiment: as above
How it was run: as §1

MDA-MB-231 [14] = experiment: as above
How it was run: as §1

MDA-MB-436 [15] = experiment: as above
How it was run: as §1

MDA-MB-453 [16] = experiment: as above
How it was run: as §1

MDA-MB-468 [17] = experiment: as above
How it was run: as §1

MFM-223 [18] = experiment: as above
How it was run: as §1

BT-474 [19] = experiment: normalised response (% of control), CellTiter-Glo; higher = more viable cells (100 = DMSO, 0 = benzethonium chloride kill control)
How it was run: as §1

BT-549 [20] = experiment: as above
How it was run: as §1

CAL-120 [21] = experiment: as above
How it was run: as §1

CAL-148 [22] = experiment: as above
How it was run: as §1

CAL-51 [23] = experiment: as above
How it was run: as §1

CAL-85-1 [24] = experiment: as above
How it was run: as §1

DU-4475 [25] = experiment: as above
How it was run: as §1

HCC1143 [26] = experiment: as above
How it was run: as §1

HCC1599 [27] = experiment: as above
How it was run: as §1

HCC1937 [28] = experiment: as above
How it was run: as §1

HDQ-P1 [29] = experiment: as above
How it was run: as §1

Hs578T [30] = experiment: as above
How it was run: as §1

MCF-10A [31] = experiment: as above
How it was run: as §1

MDA-MB-231 [32] = experiment: as above
How it was run: as §1

MDA-MB-436 [33] = experiment: as above
How it was run: as §1

MDA-MB-453 [34] = experiment: as above
How it was run: as §1

MDA-MB-468 [35] = experiment: as above
How it was run: as §1

MFM-223 [36] = experiment: as above
How it was run: as §1

SK-BR-3 = experiment: as above
How it was run: as §1

SMILES | normalised response (BT-474 [1]) [%] | normalised response (BT-549 [2]) [%] | normalised response (CAL-120 [3]) [%] | normalised response (CAL-148 [4]) [%] | normalised response (CAL-51 [5]) [%] | normalised response (CAL-85-1 [6]) [%] | normalised response (DU-4475 [7]) [%] | normalised response (HCC1143 [8]) [%] | normalised response (HCC1599 [9]) [%] | normalised response (HCC1937 [10]) [%] | normalised response (HDQ-P1 [11]) [%] | normalised response (Hs578T [12]) [%] | normalised response (MCF-10A [13]) [%] | normalised response (MDA-MB-231 [14]) [%] | normalised response (MDA-MB-436 [15]) [%] | normalised response (MDA-MB-453 [16]) [%] | normalised response (MDA-MB-468 [17]) [%] | normalised response (MFM-223 [18]) [%] | normalised response (BT-474 [19]) [%] | normalised response (BT-549 [20]) [%] | normalised response (CAL-120 [21]) [%] | normalised response (CAL-148 [22]) [%] | normalised response (CAL-51 [23]) [%] | normalised response (CAL-85-1 [24]) [%] | normalised response (DU-4475 [25]) [%] | normalised response (HCC1143 [26]) [%] | normalised response (HCC1599 [27]) [%] | normalised response (HCC1937 [28]) [%] | normalised response (HDQ-P1 [29]) [%] | normalised response (Hs578T [30]) [%] | normalised response (MCF-10A [31]) [%] | normalised response (MDA-MB-231 [32]) [%] | normalised response (MDA-MB-436 [33]) [%] | normalised response (MDA-MB-453 [34]) [%] | normalised response (MDA-MB-468 [35]) [%] | normalised response (MFM-223 [36]) [%] | normalised response (SK-BR-3) [%]
CCn1c(-c2nonc2N)nc2cnc(Oc3cccc(NC(=O)c4ccc(OCCN5CCOCC5)cc4)c3)cc21 (1000 nM) | 101 | 113 | 99 | 83.5 | 79.7 | 109 | 95.2 | 95.2 | 95 | 73.9 | 107 | 96.5 | 104 | 79.5 | 88.7 | 98.7 | 111 | 101 | 82.6 | 73.1 | 72.6 | 86.7 | 83.2 | 102 | 91.8 | 97.9 | 91.3 | 98.2 | 89.9 | 73.5 | 75.9 | 80.5 | 98.1 | 95.6 | 83 | 94.2 | 81.8
CNC(=O)c1cccc(-c2ccc3c(N4CCOC[C@@H]4C)nc(N4CCOC[C@@H]4C)nc3n2)c1 [AZD2014] (1000 nM) | 96.9 | 104 | 105 | 46.1 | 92.3 | 104 | 102 | 97.5 | 92.1 | 70.8 | 100 | 102 | 104 | 104 | 82.4 | 102 | 132 | 61.1 | 59.5 | 34.5 | 32.5 | 35.1 | 28.8 | 36.9 | 67.9 | 36.9 | 98.5 | 56.7 | 40.2 | 43.6 | 46.5 | 57.8 | 51.6 | 39.8 | 43.3 | 33.7 | 24.3
Nc1cc(C(F)(F)F)c(-c2cc(N3CCOCC3)nc(N3CCOCC3)n2)cn1 [Buparlisib] (1000 nM) | 94.7 | 113 | 100 | 91.7 | 107 | 106 | 95.6 | 95.9 | 95.4 | 96.8 | 98.7 | 107 | -21.3 | 80 | 90 | 98.9 | 165 | 97.5 | 99.8 | 89.6 | 88 | 96.2 | 90.4 | 95.1 | 82.9 | 94 | 102 | 89.5 | 70.9 | 91.1 | 55.6 | 90.3 | 102 | 99 | 82.9 | 53.3 | 84
CCOC(=O)CCNc1cc(N2CCc3ccccc3CC2)nc(-c2ccccn2)n1 [GSK-J4] (10000 nM) | -18.4 | 81.8 | 87.7 | 53.5 | 52.1 | 2.31 | 79.9 | 68.1 | 80.2 | 100 | 49.9 | -14.7 | 89.3 | 57.7 | 88.8 | 88.5 | 40.1 | 76.9 | 44.7 | 20.8 | 61.7 | 10.1 | 12.2 | 20.1 | 30.6 | 41.2 | 45.9 | 49.4 | 56.3 | 59.3 | 45.2 | 30.7 | 22.8 | 33.1 | 12.7 | 42.3 | 57.2
Cc1cc(Nc2cc(CN3CCOCC3)c3nc(C)c(Cc4ccc(Cl)cc4F)n3n2)n[nH]1 [Gandotinib] (1000 nM) | 104 | 119 | 97.4 | 104 | 71.4 | 78.5 | 102 | 97 | 104 | 101 | 105 | 101 | 90.8 | 101 | 66.1 | 107 | 99.5 | 33 | 75.8 | 77 | 90.4 | 96.7 | 55 | 78.1 | 99.9 | 88.6 | 124 | 96.7 | 90 | 86.7 | 96.6 | 70.7 | 86.4 | 107 | 53.1 | 69.7 | 82.4
COc1cc2c(NC3CCN(C(C)C)CC3)nc(N3CCC(F)(F)CC3)nc2cc1OCCCN1CCCC1 [UNC0642] (1000 nM) | 97.4 | 86.2 | 96.9 | 94.5 | 98 | 97.7 | 96.4 | 102 | 97.6 | 108 | 104 | 67.8 | 90.6 | 92.8 | 61.8 | 102 | 146 | 88.9 | 109 | 92.4 | 89 | 89.1 | 108 | 93.2 | 98.7 | 91.2 | 93.1 | 94 | 99.7 | 100 | 84.6 | 95.4 | 90.9 | 94.6 | 85.9 | 91.2 | 96.4
